Data from patent US20240116946A1 (Gilead Sciences, Inc., priority 2022, published 2024).
Like-named read-outs stand apart in the source and are kept apart here.

What was measured:
[1] = target: recombinant SARS-CoV-2 Main protease (Mpro) (Severe acute respiratory syndrome coronavirus 2 (2019-nCoV) (SARS-CoV-2), UniProt P0DTD1); test: Cov Mpro Biochemical IC50 Assay
SARS-CoV-2-NLuc = test: microbe, parasite or virus in culture; assay type: cell-based, SARS Coronavirus 2
[2] = recombinant SARS-CoV-2 Mpro 7.5 nM, fluorogenic peptide substrate 40 μM, read-out: MPro IC50
[3] = Severe acute respiratory syndrome coronavirus, 48 h; read-out: MPro EC50
[4] = Severe acute respiratory syndrome coronavirus, 48 h, read-out: MPro EC50
[5] = recombinant SARS-CoV-2 Mpro, fluorogenic peptide substrate, read-out: MPro IC50

Structure (SMILES)	IC50 [1, 2] [nM]	EC50 (SARS-CoV-2-NLuc; [4]) [nM]	other results
Cn1ncc2cncc(-n3c(=O)c4sc(-c5ccc(Cl)cc5C#N)cc4n(CCC#N)c3=O)c21 [Example 824]	22.5		EC50 (SARS-CoV-2-NLuc; [3]): 79.9 nM
COc1ccc(C#N)c(-c2cc3[nH]c(=O)n(-c4cncc5cnccc45)c(=O)c3s2)c1 [Example 583]	20.9	227	
COc1cc(-c2cc3[nH]c(=O)n(-c4cncc5scc(C)c45)c(=O)c3s2)c(Cl)cc1F [Example 611, 6-(2-chloro-4-fluoro-5-methoxyphenyl)-3-(3-methylthieno[2,3-c]pyridin-4-yl)thieno[3,2-d]pyrimidine-2,4(1H,3H)-dione]	< 2.54	4.95	
COc1cnc(C#N)c(-c2cc3c(s2)c(=O)n(-c2cncc4cnn(C)c24)c(=O)n3CCC#N)c1 [Example 777]	24.6	253	
COc1cc(-c2cc3c(s2)c(=O)n(-c2cncc(N(C)C)c2)c(=O)n3CCC#N)c(Cl)cc1F [Example 874]	41.4	204	
Cc1cccc2cncc(-n3c(=O)[nH]c4cc(-c5ccccc5Cl)sc4c3=O)c12 [Example 558, 6-(2-chlorophenyl)-3-(5-methylisoquinolin-4-yl)thieno[3,2-d]pyrimidine-2,4(1H,3H)-dione]	3.39	17.5	
CCOc1ccc(Cl)c(-c2cc3[nH]c(=O)n(-c4cncc5ccccc45)c(=O)c3s2)c1 [Example 345]		61.8	IC50 [1, 5]: 14.7 nM
O=c1[nH]c2cc(-c3cccc4c3CCC4)ccc2c(=O)n1-c1cncc2ccccc12 [Example 171, 7-(2,3-dihydro-1H-inden-4-yl)-3-(isoquinolin-4-yl)quinazoline-2,4(1H,3H)-dione]		4200	IC50 [1, 5]: 3790 nM
Cn1nnc2cncc(-n3c(=O)c4sc(-c5ccc(F)cc5Cl)cc4n(CCC#N)c3=O)c21 [Example 773, 3-[6-(2-chloro-4-fluoro-phenyl)-3-(1-methyltriazolo[4,5-c]pyridin-7-yl)-2,4-dioxo-thieno[3,2-d]pyrimidin-1-yl]propanenitrile]	25.5	67.5	
COc1cc(-c2cc3[nH]c(=O)n(-c4cncc5cnn(C)c45)c(=O)c3s2)c(Cl)cc1F [Example 505, 6-(2-chloro-4-fluoro-5-methoxyphenyl)-3-(1-methyl-1H-pyrazolo[4,3-c]pyridin-7-yl)thieno[3,2-d]pyrimidine-2,4(1H,3H)-dione]	5.45	9.97	
COc1ccc(Cl)c(-c2cc3[nH]c(=O)n(-c4cncc5cc(Cl)ccc45)c(=O)c3s2)c1 [Example 591]	12.2	142	
COc1cc(-c2cc3[nH]c(=O)n(-c4cncc5ccccc45)c(=O)c3cc2OC)c(C#N)cc1F (single isomer, unassigned) [Example 572, 5-fluoro-2-[3-(4-isoquinolyl)-6-methoxy-2,4-dioxo-1H-quinazolin-7-yl]-4-methoxy-benzonitrile]	2.9		EC50 (SARS-CoV-2-NLuc; read-out: MPro EC50): 10.6 nM
COc1ccc(Cl)c(-c2cc3[nH]c(=O)n(-c4cncc5ccoc45)c(=O)c3s2)c1 [Example 493]	7.94	33.5	
Cn1ncc2c(-n3c(=O)[nH]c4cc(-c5ccccc5Cl)sc4c3=O)cncc21 [Example 491]	17.3	64.3	
COc1cc(-c2cc3[nH]c(=O)n(-c4cncc5scc(C)c45)c(=O)c3s2)c(Cl)cc1F (single isomer, unassigned) [Example 1057, 6-(2-chloro-4-fluoro-5-methoxyphenyl)-3-(3-methylthieno[2,3-c]pyridin-4-yl)thieno[3,2-d]pyrimidine-2,4(1H,3H)-dione]	145		EC50 (SARS-CoV-2-NLuc; read-out: MPro EC50): 52.6 nM
COc1ccc(Cl)c(-c2cc3[nH]c(=O)n(-c4cncc5ccc(N6CCn7nc(C(F)(F)F)nc7C6)cc45)c(=O)c3s2)c1 [Example 604]	6.32	10.9	
COc1cc(-c2cc3c(s2)c(=O)n(-c2cncc(C)c2)c(=O)n3CCC#N)c(C#N)cc1F [Example 876]	2.76	6.25	
COc1ccc(C#N)c(-c2cc3[nH]c(=O)n(-c4cncc5ccc(OC)cc45)c(=O)c3cc2F)c1 [Example 429]	2.83	11.2	
Cc1cc(-c2cccc(Cl)c2-c2ccc3c(=O)n(-c4cncc5ccccc45)c(=O)[nH]c3c2)cc(C#N)n1 [Example 317]		4.97	IC50 [1, 5]: 11 nM
COc1cc(-c2cc3[nH]c(=O)n(-c4cncc5sc(C(N)=O)c(C)c45)c(=O)c3s2)c(Cl)cc1F [Example 1049]	3.16	40.9	
O=c1c2sc(-c3ccccc3Cl)cc2[nH]c(=S)n1-c1cncc2ccccc12 [Example 176]			IC50 ([1]; MPro IC50, recombinant SARS-CoV-2 Mpro, fluorogenic peptide substrate): 330 nM; EC50 (SARS-CoV-2-NLuc; [3]): 292 nM

Structure (SMILES)	IC50 [1, 2] [nM]	EC50 (SARS-CoV-2-NLuc; [4]) [nM]	other results
Cc1cn(C)nc1-c1cccc(Cl)c1-c1cc2[nH]c(=O)n(-c3cncc4ccccc34)c(=O)c2s1 [Example 519]	10.9	31.6	
COc1cc(-c2cc3c(s2)c(=O)n(-c2cncc(F)c2C)c(=O)n3CCC#N)c(Cl)cc1F [Example 1022, 3-[6-(2-chloro-4-fluoro-5-methoxy-phenyl)-3-(5-fluoro-4-methyl-3-pyridyl)-2,4-dioxo-thieno[3,2-d]pyrimidin-1-yl]propanenitrile]	7.3		EC50 (SARS-CoV-2-NLuc; [3]): 9.53 nM
COc1cc(-c2cc3[nH]c(=O)n(-c4cncc5cnn(C)c45)c(=O)c3cc2F)c(C#N)cc1F [Example 766]	18.9	102	
Cc1ncccc1-c1cccc(Cl)c1-c1ccc2c(=O)n(-c3cncc4ccccc34)c(=O)[nH]c2c1 [Example 320]		14.1	IC50 [1, 5]: 16 nM
COc1ccc(Cl)c(-c2ccc3c(=O)n(-c4cncc5ccc(N6CC7(CNC(=O)C7)C6)cc45)c(=O)[nH]c3c2)c1 [Example 411]	8.93		EC50 (SARS-CoV-2-NLuc; [3]): 221 nM
O=c1[nH]c2cc(-c3ncco3)sc2c(=O)n1-c1cncc2ccccc12 [Example 166, 3-(isoquinolin-4-yl)-6-(oxazol-2-yl)thieno[3,2-d]pyrimidine-2,4(1H,3H)-dione]		4420	IC50 [1, 5]: 942 nM
COc1ccc(Cl)c(-c2cc3[nH]c(=O)n(-c4cncc5cccnc45)c(=O)c3s2)c1 [Example 456, 6-(2-chloro-5-methoxyphenyl)-3-(1,6-naphthyridin-8-yl)thieno[3,2-d]pyrimidine-2,4(1H,3H)-dione]	3.59	6.79	
COc1cc(-c2cc3[nH]c(=O)n(-c4cncc5nn(C)cc45)c(=O)c3s2)c(Cl)cc1F [Example 731]	5.04	65.6	
Cc1nn(C2CCNCC2)cc1-c1cccc(Cl)c1-c1ccc2c(=O)n(-c3cncc4ccccc34)c(=O)[nH]c2c1 [Example 472, 7-[2-chloro-6-[3-methyl-1-(4-piperidyl)pyrazol-4-yl]phenyl]-3-(4-isoquinolyl)-1H-quinazoline-2,4-dione]	5.11	188	
Cc1cncc(-n2c(=O)c3sc(-c4ccccc4C#N)cc3n(CCC#N)c2=O)c1 [Example 875]	9.81		EC50 (SARS-CoV-2-NLuc; [3]): 32.4 nM
O=c1[nH]c2cc(-c3ccccc3Cl)sc2c(=O)n1-c1cncc2ccc(N3CCN(C4COC4)CC3)cc12 [Example 392]		6.75	IC50 [1, 5]: < 2.54 nM
O=c1[nH]c2cc(-c3c(Cl)cccc3-c3ccc4c(c3)OCO4)ccc2c(=O)n1-c1cncc2ccccc12 [Example 356]		52.2	IC50 [1, 5]: 130 nM
Cc1nc2cncc(-n3c(=O)c4sc(-c5cc(F)c(F)cc5Cl)cc4n(CCC#N)c3=O)c2n1C [Example 860]	39.4	212	
O=c1[nH]c2cc(-c3ccccc3Cl)sc2c(=O)n1-c1cncc2ccc(N3CCC(O)(C(F)(F)F)CC3)cc12 [Example 427]	15.6	24	
O=c1[nH]c2cc(-c3c(Cl)cccc3-c3cnn4c3COCC4)sc2c(=O)n1-c1cncc2ccccc12 [Example 523]	4.05	5.79	
CCOc1ccc(Cl)c(-c2ccc3c(=O)n(-c4cncc5ccccc45)c(=O)[nH]c3c2)c1 [Example 300]		60.5	IC50 [1, 5]: 148 nM
Cn1ncc2cncc(-n3c(=O)c4sc(-c5cc(Cl)ccc5C#N)cc4n(CCC#N)c3=O)c21 [Example 774]	6.33	19.4	
COc1ccc(Cl)c(-c2cc3[nH]c(=O)n(-c4cncc5ccccc45)c(=O)c3s2)c1 (single isomer, unassigned) [Example 466, 6-(2-chloro-5-methoxyphenyl)-3-(isoquinolin-4-yl)thieno[3,2-d]pyrimidine-2,4(1H,3H)-dione]	156		EC50 (SARS-CoV-2-NLuc; read-out: MPro EC50): 152 nM
O=c1[nH]c2cc(-c3c(Cl)cccc3-c3cnn4c3OCCC4)ccc2c(=O)n1-c1cncc2ccccc12 [Example 325]		27.9	IC50 [1, 5]: 15.8 nM
COC(=O)Cn1c(=O)n(-c2cncc3ccccc23)c(=O)c2sc(-c3ccccc3Cl)cc21 [Example 220]		86.6	IC50 [1, 5]: 29.1 nM
